The record followed here is PubChem BioAssay (NCI).

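How tested: cells in 96-well plates exposed to compound for 48 hours at five concentrations. Here, GI50 denotes the concentration required for 50% inhibition of growth. The concentration for full growth arrest is given as TGI.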

Assay in all cases: growth of human tumour cells (NCI), 48 h
In assay [1] the test system is COLO 205 colon.
The subject of assay [2] is UACC-257 melanoma.
The subject of assay [3] is LOX IMVI melanoma.
Assay [4] concerns OVCAR-4 ovarian.
The test system of assay [5] is 786-0 renal.
The subject of assay [6] is RPMI-8226 leukemia.
The test system of assay [7] is SK-MEL-2 melanoma.
The test system of assay [8] is SK-MEL-28 melanoma.
In assay [9] the test system is SF-295 CNS.
In assay [10] the test system is A498 renal.

In the case of `CC(C)C[C@@H]1NC(=O)[C@@H]2CCCN2C(=O)[C@@H]2CCCN2C(=O)[C@H](CC(C)C)NC(=O)[C@H](CO)NC(=O)[C@H](CCCCN)NC(=O)[C@H]([C@H](C)O)NC(=O)[C@@H]2CCCC[C@@H](NC1=O)C(=O)N[C@@H](Cc1ccccc1)C(=O)N1CCC[C@H]1C(=O)N[C@@H](CC(=O)O)C(=O)NCC(=O)N[C@@H](CCCN=C(N)N)C(=O)N2`, the GI50 in [1], in assay [2], in [3], in [4], in assay [5] and in assay [6] was above 50 µM each time. For the same compound, the GI50 in assay [7], in assay [8] and in [9] was above 50 µM throughout. The TGI in assay [1], in assay [2], in assay [3], in assay [4], in [5] and in assay [6] was above 50 µM each time. The TGI in [7], in assay [8] and in [9] was above 50 µM throughout.

Regarding `C=CC(=O)Nc1cccc(C)c1Nc1ncc2cc(-c3c(Cl)c(OC)cc(OC)c3Cl)ccc2n1`, the GI50 was 4.17 µM in [1]; 3.43 µM in [2]; 2.33 µM in assay [3]; 3.47 µM in assay [4]; 2.33 µM in assay [5]; 1.44 µM in assay [6]. Further, the GI50 in [7] was 4.26 µM; in [8], 12.7 µM; in assay [9] it was 3.26 µM. The TGI in [1] is 36.7 µM; in [2] it was 68.3 µM; in assay [3], 14.1 µM; in assay [4] it was above 100 µM; in assay [5] it was 10.1 µM; in [6], 7.54 µM. The TGI in assay [7] was 28.7 µM; in assay [8], 55.6 µM; in assay [9], above 100 µM.

On to `COc1ccc2c(c1)CC1c3c(cc4c(c3-2)OCO4)CCN1C` (centres undefined), for which the TGI is 30.9 µM in assay [1]; 57.5 µM in [2]; 31.7 µM in assay [10]; 52.2 µM in assay [4]; above 100 µM in assay [5]; 64.2 µM in [6]. The TGI was determined as 72.3 µM in assay [7], 95.8 µM in [8] and 50 µM in assay [9].

Turning to `CC(C)CCc1c(Cl)nc(Cl)nc1Cl`, the TGI in [2] is 34 µM; in assay [3] it was 11.8 µM; in assay [4] it was 44.2 µM; in assay [5], 46.3 µM; in assay [6], above 100 µM; in assay [7] it was above 100 µM. Moreover, in assay [9], the TGI was 34.4 µM.

Regarding `Cc1ccc(C2=C(c3ccccc3)C(Br)(c3ccccc3)C(c3ccccc3)=C2c2ccc(C)cc2)cc1`, the TGI in assay [1], in [2], in assay [10], in [4], in assay [5] and in assay [6] was above 100 µM each time. In addition, the TGI in assay [7], in [8] and in assay [9] was above 100 µM in each case.

For `O=C1CCCC1NC(=O)C(F)(F)F` (centres undefined), the TGI in [2], in assay [10], in assay [4], in assay [5], in assay [7] and in assay [8] was above 100 µM in each case. Further, the TGI in assay [9] is above 100 µM.

For `Cn1c(=O)c(C(=O)NC(=O)OCc2ccccc2)cn(CCSCCOC(=O)NCCCCCCNC(=O)OCCSCCn2cc(C(=O)NC(=O)OCc3ccccc3)c(=O)n(C)c2=O)c1=O`, the TGI in assay [1], in assay [3], in assay [10], in assay [4], in [5] and in assay [6] was above 100 µM each time. Besides, the TGI in assay [7] and in [8] was above 100 µM throughout.

As to `O=C(N/C(=C\c1ccc(Oc2ccc(Cl)c(Cl)c2)cc1)c1nc2ccccc2[nH]1)c1ccccc1`, the TGI in assay [1] is 58 µM; in assay [4], 54.2 µM; in assay [5], 33 µM; in [7], 37.7 µM; in [8], 35.1 µM; in assay [9], 29 µM.

For the compound `O=C1C(=O)c2ccccc2C(O)=C1CCCCCCCCC1CCCCC1`, the TGI in assay [1] is 22.7 µM; in assay [2], 72.8 µM; in [3] it was 15.8 µM; in assay [4], above 100 µM; in [5] it was 18.9 µM; in assay [6], 56.7 µM. The TGI in assay [7] was determined as 30.2 µM; in [8], 35 µM.

As for `Cc1ccc(/C=C2\CCCC\C2=N\O)cc1`, the TGI in assay [1], in assay [3], in assay [10], in assay [4], in assay [5] and in assay [8] was above 100 µM throughout. Besides, the TGI in assay [9] is above 100 µM.

As for `CN1CCn2c(c(Sc3ccc(C(=O)NO)cc3)c3ccccc32)C1=O`, the GI50 in assay [1] is 1.69 µM; in assay [2], 1.51 µM; in assay [3], 1.78 µM; in assay [10], 0.151 µM; in assay [4] it was 2.14 µM; in assay [5] it was 1.89 µM. For the same compound, the results for the GI50 in [6], in assay [7] and in [8] were 1.24 µM, 2.01 µM and 1.94 µM, respectively. The TGI worked out at 3.87 µM in assay [1]; 3.56 µM in assay [2]; 3.66 µM in assay [3]; 1.8 µM in [10]; 9.99 µM in assay [4]; 3.64 µM in assay [5]. Besides, the TGI in assay [6] was above 24.5 µM; in [7], 4.1 µM; in assay [8], 4.94 µM.

Turning to `Clc1nc(Cl)c(Cc2ccccc2)c(Cl)n1`, the TGI in assay [1] was 22.6 µM; in assay [3] it was above 100 µM; in [4] it was 29.4 µM; in [5] it was 10.4 µM; in assay [6] it was above 100 µM; in assay [7], above 100 µM. Also, the figures for the TGI in assay [8] and in assay [9] were 26.6 µM and 32 µM, respectively.

As for `CN(C)CCNC(=O)c1cc2c3ccccc3[nH]c2c2ncccc12`, the GI50 in assay [1] is 2.95 µM; in assay [2] it was 10.4 µM; in assay [3] it was 4.14 µM; in assay [10] it was 7.82 µM; in [4] it was 8.48 µM; in assay [5], 15.2 µM. The GI50 in [6] was 6.01 µM; in assay [7] it was 9.15 µM; in assay [8], 15.3 µM. In addition, the TGI in [1] stood at 16.5 µM; in assay [2], 88.1 µM; in assay [3], 17.5 µM; in [10], 21.4 µM; in assay [4] it was 47.7 µM; in assay [5] it was 53.5 µM. Also, the TGI in [6] turned out to be 22.7 µM; in assay [7], 72.5 µM; in assay [8] it was 29.9 µM.

For `Oc1c(N=Nc2ccccc2)c2ccccc2c2ccc3ccccc3c12`, the TGI in [1], in assay [2], in assay [10], in [4], in [5] and in assay [6] was above 100 µM in each case. Further, the TGI in assay [7], in [8] and in [9] was above 100 µM in each case.

In the case of `N#CC(C#N)=C1SCC(=O)CS1`, the TGI in assay [1], in assay [2], in [3], in [10], in assay [4] and in [5] was above 100 µM in each case. Further, the TGI in [6] and in assay [9] was above 100 µM in each case.

Take `COc1cc(C(=O)CC2(O)C(=O)Nc3c(Cl)cc(Cl)cc32)ccc1O` (centres undefined): the TGI in assay [1] was 83.5 µM; in assay [2] it was above 100 µM; in [3], above 100 µM; in assay [4], above 100 µM; in assay [5] it was above 100 µM; in assay [6], above 100 µM. In addition, the TGI in assay [7], in assay [8] and in assay [9] was above 100 µM throughout.

On to `N#C[S-].[Au+].c1ccc(CN2[CH-]N(Cc3ccccc3)C(c3ccccc3)=C2c2ccccc2)cc1`, for which the GI50 in assay [10] is 0.251 µM; in assay [4], 0.413 µM; in assay [5], 0.444 µM; in assay [7], 0.337 µM. For the same compound, the TGI is 0.822 µM in assay [10], 2.1 µM in [4], 1.91 µM in [5] and 1.26 µM in [7].

`NC(CCSC(F)F)C(=O)O` (centres undefined): the TGI in [1], in assay [3], in assay [4], in assay [5], in [7] and in assay [8] was above 100 µM each time. The TGI in [9] is above 100 µM.

With `Cc1nn(-c2nc3ccccc3[nH]2)c2c1C(c1ccc3c(c1)OCO3)CC(=O)N2` (centres undefined), the GI50 in assay [1] was 2.11 µM; in assay [2] it was 2.41 µM; in [10] it was 1.61 µM; in [4], 3.51 µM; in assay [5], 3.65 µM; in assay [6] it was 2.22 µM. Further, the GI50 in assay [7] was 2.82 µM; in assay [8], 3.39 µM; in assay [9] it was 1.81 µM. The TGI in [1] was 4.15 µM; in [2], 6.96 µM; in assay [10] it was 4.42 µM; in assay [4] it was above 87.4 µM; in [5], 21.9 µM; in assay [6] it was 5.02 µM. The TGI in assay [7] was 6.96 µM; in assay [8], 32.6 µM; in assay [9], 4.38 µM.

On to `Clc1ccc2c(c1)-c1ccccc1C1=NCCN12`, for which the GI50 was 1.61 µM in assay [1]; 1.54 µM in assay [2]; 1.59 µM in assay [3]; 1.99 µM in [4]; 1.66 µM in [5]; 1.91 µM in [6]. Besides, the GI50 in assay [7] was 2.02 µM; in [8], 1.74 µM; in assay [9], 2.12 µM. Also, the TGI in assay [1] is 3.54 µM; in assay [2], 3.3 µM; in [3], 3.65 µM; in [4] it was 7.35 µM; in [5], 3.52 µM; in assay [6], 4.36 µM. For the same compound, the TGI in [7] was found to be 3.89 µM; in assay [8] it was 3.54 µM; in assay [9], 6.34 µM.

On to `O=C(/C=C1/NC(=O)CS1)Nc1ccccc1`, for which the TGI in assay [1], in assay [10], in [4], in assay [5], in assay [6] and in assay [7] was above 100 µM each time. Besides, the TGI in assay [8] and in assay [9] was above 100 µM in each case.

Take `COc1cc2cccc(NC(=O)c3cc(OC)c(OC)c(OC)c3Br)c2cc1OC`: the TGI in assay [1] is 26.6 µM; in [2] it was 16.7 µM; in assay [10] it was above 100 µM; in [4], 34.3 µM; in [5] it was above 100 µM; in assay [6] it was 17 µM. In addition, the results for the TGI in [7], in assay [8] and in assay [9] were 49 µM, 41.8 µM and 40.9 µM, respectively.

For the compound `Cc1ccc(N2C(=O)/C(=C/c3ccc(N(CCC#N)CCC#N)cc3C)N=C2c2cc([N+](=O)[O-])ccc2Cl)cc1`, the TGI in [1], in [2], in assay [10], in assay [4], in assay [5] and in assay [6] was above 100 µM in each case. The TGI in assay [7], in assay [8] and in [9] was above 100 µM in each case.

In the case of `COc1cc([N+](=O)[O-])c(OC)cc1-c1nc2sc(Cl)cn2c1/C=N/NC(=N)N/N=C/c1c(-c2cc(OC)c([N+](=O)[O-])cc2OC)nc2sc(Cl)cn12`, the GI50 in assay [1] is 1.89 µM; in [10], 1.7 µM; in assay [4] it was 2.42 µM; in assay [5], 1.84 µM; in [8], 3.19 µM. The TGI was 4.08 µM in assay [1]; 3.13 µM in assay [10]; 5.71 µM in assay [4]; 3.29 µM in assay [5]; above 100 µM in [8].
